According to patent US20040053962A1, “Methods for inhibiting proliferation and inducing apoptosis in cancer cells” (priority 2003, published 2004):

What was measured:
Type in all cases: cell-based
[1] = tested on: MiaPaCa-2 pancreatic cancer cell line; assay: [3H]-thymidine incorporation (DNA synthesis), MiaPaCa-2; set-up: effect on proliferation (thymidine incorporation): dose or concentration left out as unconfirmed
Experimental: (§1) Cell culture. The following pancreatic cancer cell lines were used: MiaPaCa-2 and PANC-1 (poorly-differentiated); Capan-1 and Capan-2 (well-differentiated); and HPAF and AsPC-1 (pleomorphic). These were purchased from American Type Culture Collection (Rockville, Md.). PANC-1 and MiaPaCa-2 were grown in DMEM media; HPAF and AsPC-1 were grown in MEM media; and Capan-1 and Capan-2 were grown in-McCoy's media. Media were supplemented with 10% FBS, and the cells were grown as monolayers in a humidified atmosphere of […] and 5% CO2 at 37° C. The cells were regularly seeded into 75 cm^2 flask with media changed every other day. For experiments, cells were grown to 80% confluence, digested with trypsin-EDTA, and plated either in 12 or 24-well plates at a concentration of 50,000/ml, as appropriate.
(§2) DNA synthesis by [^3H]-Thymidine incorporation. Cells were plated in 12 or 24-well plates. After reaching 70% confluence, they were incubated in serum-free media for 24 hours, which was then replaced with fresh serum-free media with or without the appropriate concentration of leukotriene B4 receptor antagonist LY293111 (62.5-1000 nM), LTB4 (100-400 nM), or both. After the appropriate period of culture, cellular DNA synthesis was assayed by adding 0.5 μCi/well of [^3H]-methyl-thymidine and incubating for another 2 hours. Then, the cells were washed twice with PBS, fixed with 10% trichloroacetic acid (“TCA”) for 30 minutes, and solubilized by adding 0.4 M NaOH to each well. Radioactivity, indicating incorporation of ^3H-thymidine into DNA, was measured by adding a scintillation cocktail and counting on a scintillation counter (LKB RackBeta, Wallac, Turku, Finland)

[2] = tested on: HPAF pancreatic cancer cell line; assay: [3H]-thymidine incorporation (DNA synthesis), HPAF; set-up: effect on proliferation (thymidine incorporation): dose or concentration left out as unconfirmed
Experimental: as §1, §2

[3] = tested on: Bcl-2 in MCF-7 breast cancer cells; assay: Bcl-2 expression by western blotting; settings: MCF-7, LTB4 100 nM

SMILES	increase of proliferation compared with control ([1]; MiaPaCa-2 (FIG. 6A), 100 nM LTB4, 24 hours) [%]	thymidine incorporation compared with control ([1]; MiaPaCa-2, LTB4 100 nM for 72 hours)	effect on proliferation (thymidine incorporation) ([1]; MiaPaCa-2, concentration and time-dependent, P<0.0001)	increase of proliferation compared with control ([2]; HPAF (FIG. 6B), 100 nM LTB4, 24 hours) [%]	thymidine incorporation compared with control ([2]; HPAF, LTB4 100 nM for 72 hours)	effect on proliferation (thymidine incorporation) ([2]; HPAF, concentration and time-dependent, P<0.0001)	Bcl-2 expression (western blot) [3]	effect on proliferation (thymidine incorporation) ([1]; MiaPaCa-2, 48 hours, likely a toxic effect, P=0.2316)	effect on proliferation (thymidine incorporation) ([2]; HPAF, 48 hours, likely a toxic effect, P=0.2217)
CCCCC/C=C\C[C@@H](O)/C=C/C=C/C=C\[C@@H](O)CCCC(=O)O [LTB4, Leukotriene B4, reference compound]	25	more than doubled	stimulated the proliferation	25	more than doubled	stimulated the proliferation	increase expression		
CCCc1c(OCCCCc2nnn[nH]2)ccc(C(C)=O)c1O [LY171883, 1-(2-hydroxy-3-propyl-4-(4-(1H-tetrazol-5-yl)butoxy)phenyl)ethanone, reference compound]								only affected proliferation at the highest concentration	only affected proliferation at the highest concentration
